Results on 2 compounds are retold here after patent US20230233674A1 (priority 2022, published 2023).

For data set [1] the following is noted: cited from earlier work.
Data set [2] concerns Influenza A/California/04/2009 (H1N1). On the set-up: species or system mice. As to conditions: mouse, in vivo.

“2′-3″cyclic guanosine monophosphate adenosine monophosphate [cGAMP]”: in data set [1], the in vivo half-life is around 35 min. Turning to `CCOC(=O)C1=C[C@@H](OC(CC)CC)[C@H](NC(C)=O)[C@@H](N)C1` [Oseltamivir], the “mean peak weight loss” value in data set [2] was −32%.
